# Laboratory results published in PubChem BioAssay (NCI).
# Values joined by “and” are separate entries in the source; they are usually repeats but may differ in a detail not shown here. Identical values can stand only once.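 Step 1: Grow cells in 96-well plates. Step 2: Expose to compound for 48 hours at 5 concentrations. Step 3: Interpolate endpoints linearly; if unreached, use highest concentration. GI50 = concentration required for 50% inhibition of growth. TGI denotes the concentration required for complete inhibition of growth.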
# Experiments:
# Experiment in all cases: NCI anticancer screen, dose series, 48 h
# HCT-116 colon = tested on: HCT-116 colon
# NCI-H23 lung = tested on: NCI-H23 lung
# HCT-15 colon = tested on: HCT-15 colon
# K-562 leukemia = tested on: K-562 leukemia
# HS 578T breast = tested on: HS 578T breast
# MDA-MB-435 = tested on: MDA-MB-435
# U251 CNS = tested on: U251 CNS
# CCRF-CEM leukemia = tested on: CCRF-CEM leukemia
# COLO 205 colon = tested on: COLO 205 colon
# SF-539 CNS = tested on: SF-539 CNS
Compound,GI50 (HCT-116 colon),TGI (HCT-116 colon),GI50 (NCI-H23 lung) [µM],TGI (NCI-H23 lung),GI50 (HCT-15 colon) [µM],TGI (HCT-15 colon),GI50 (K-562 leukemia) [µM],TGI (K-562 leukemia),GI50 (HS 578T breast) [µM],TGI (HS 578T breast),GI50 (MDA-MB-435) [µM],TGI (MDA-MB-435),GI50 (U251 CNS) [µM],TGI (U251 CNS),GI50 (CCRF-CEM leukemia) [µM],TGI (CCRF-CEM leukemia),GI50 (COLO 205 colon) [µM],TGI (COLO 205 colon),GI50 (SF-539 CNS) [µM],TGI (SF-539 CNS)
COc1ccc(C(CC(=O)c2ccccc2)C(C(=O)c2ccccc2)C(c2ccc(OC)cc2)C2C(=O)NC(=O)NC2=O)cc1 (configuration not stated),14.2 µM,35.9 µM,37.3,> 100 µM,21.9,> 100 µM,39.1,> 100 µM,25.9,> 100 µM,19.6,> 100 µM,10.7,51.3 µM,12.9,> 100 µM,3.43,19.1 µM,17.8,63.2 µM
COc1ccc(/C=C2/CN(C(=O)c3ccccc3F)C/C(=C\c3ccc(OC)cc3)C2=O)cc1,0.392 µM,1.39 µM,5.03,24.3 µM,2.05,6.62 µM,3.49,> 100 µM,2.54,8.31 µM,2.48,9.93 µM,2.18,5.14 µM,2.76,> 100 µM,3.82,12.3 µM,3.65,14.6 µM
COc1ccc(OC)c(/C=C/[N+](=O)[O-])c1,–,12.7 µM and 6.06 µM,–,13.6 µM and 8.12 µM,–,17.1 µM and 6.73 µM,2.08,6.96 µM and 14.8 µM,–,14.6 µM,–,7.68 µM,2.27,8.86 µM and 7.37 µM,1.18,14.6 µM and 5.38 µM,–,4.06 µM and 6.76 µM,–,13.8 µM and 10.4 µM
COC1/C=C/O[C@@]2(C)Oc3c(C)c(O)c4c(O)c(cc(O)c4c3C2=O)NC(=O)/C(C)=C\C=C\[C@H](C)C(O)[C@@H](C)[C@@H](O)[C@@H](C)[C@H](OC(C)=O)[C@@H]1C (some centres not stated),12.2 µM and 12.5 µM,25.4 µM and 26.1 µM,–,33.8 µM,20.9,35.1 µM and 49.8 µM,4.47,21.8 µM and 82.6 µM,24.2,64.6 µM and 114 µM,17.2,31.6 µM and 40.4 µM,16.5,30.1 µM and 116 µM,0.504,4.07 µM and 32.6 µM,4.25,15.5 µM and 10.6 µM,3.41,12.5 µM and 69.3 µM
CCCC[C@@H]1NC(=O)[C@H](CCCCN)NC(=O)[C@H](CCCNC(=N)N)NC(=O)[C@H](CC(C)C)NC(=O)[C@@H](NC(=O)[C@H](Cc2cccc(Cl)c2)NC(=O)[C@@H]2CCCN2C(=O)[C@@H](NC(C)=O)C(C)C)CCSSC[C@@H](C(=O)N[C@@H](CCCCN)C(=O)N2CCC[C@H]2C(=O)N2CCC[C@H]2C(=O)N[C@@H](CCC(=O)O)C(N)=O)NC(=O)[C@H](Cc2ccccc2)NC(=O)[C@H](CO)NC(=O)[C@H](C)NC(=O)[C@@H]2CCCN2C1=O,> 50 µM,> 50 µM,> 50,> 50 µM,> 50,> 50 µM,> 50,> 50 µM,> 50,> 50 µM,> 50,> 50 µM,> 50,> 50 µM,> 50,> 50 µM,> 50,> 50 µM,> 50,> 50 µM
COc1ccc(-c2cc3cccc(OC)c3c(=O)o2)cc1OC,29.6 µM,> 100 µM,47.9,> 100 µM,23.4,> 100 µM,26.3,> 100 µM,12.7,> 100 µM,3.22,> 100 µM,12.4,> 100 µM,30.9,> 100 µM,35.8,> 100 µM,0.559,22.9 µM
